These results are taken from patent publication EP4782453A1 (Beyang Therapeutics Co., Ltd., priority 2023, dated 2025).

The target of one assay is T1, Menin-MLL (Homo sapiens, UniProt O00255).
T1 construct: His-Menin (M1-L615 end); purchased BIORTUS BP9210
T1 sequence (O00255 1-615 isoform O00255-1): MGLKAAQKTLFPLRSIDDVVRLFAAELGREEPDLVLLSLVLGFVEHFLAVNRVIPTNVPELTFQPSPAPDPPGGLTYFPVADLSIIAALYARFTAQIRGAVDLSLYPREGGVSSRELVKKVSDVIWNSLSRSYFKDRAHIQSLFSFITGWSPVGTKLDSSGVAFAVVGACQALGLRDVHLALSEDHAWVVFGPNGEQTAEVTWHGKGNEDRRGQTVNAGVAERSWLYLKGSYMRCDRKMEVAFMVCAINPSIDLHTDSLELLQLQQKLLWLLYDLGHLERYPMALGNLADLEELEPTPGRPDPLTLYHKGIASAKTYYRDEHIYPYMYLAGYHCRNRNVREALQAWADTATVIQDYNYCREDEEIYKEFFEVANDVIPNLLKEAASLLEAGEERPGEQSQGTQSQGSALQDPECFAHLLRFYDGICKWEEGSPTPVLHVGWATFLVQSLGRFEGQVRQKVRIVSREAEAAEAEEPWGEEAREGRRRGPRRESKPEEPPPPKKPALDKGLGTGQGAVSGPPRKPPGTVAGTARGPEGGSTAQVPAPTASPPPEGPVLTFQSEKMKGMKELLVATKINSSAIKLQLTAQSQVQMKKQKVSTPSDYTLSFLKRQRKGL
Put plainly: Inhibitory activity against Menin-MLL binding (fluorescence polarization). The note with it: Menin-MLL IC50, fluorescence polarization; 150 nM His-Menin, 15 nM FITC-MLL; 25°C for 60 min. Here is the method: • His-Menin (M1-L615 end), purchased from BIORTUS, Catalog Number: BP9210; and • FITC-MLL4-43, purchased from GenScript, Catalog Number: C491HFF190-3/PE1324.
In a 10 µL reaction solution (20 mM HEPES, pH 7.5, 50 mM NaCl, 1 mM DTT, 0.01% BSA) containing any compound from the examples, 150 nM His-Menin was added to a 384-well plate (Corning, Model: 4514). Each concentration was set up in duplicate wells. After centrifugation at 1000 RPM for 1 min, the plate was incubated at 25°C for 15 min. Then, 15 nM […] (20 mM HEPES, pH 7.5, 50 mM NaCl, 1 mM DTT, 0.01% BSA) was added to a 384-well plate. After centrifugation at 1000 RPM for 1 min, the reaction proceeded at 25°C for 60 min. Changes in fluorescence polarization were measured using a plate reader (PerkinElmer, Envision 2104). Based on the measured signals, the binding inhibition rate of the compound at each concentration was calculated, and the IC50 (half-maximal inhibitory concentration) of the compound was determined using statistical analysis software GraphPad Prism (GraphPad Software, Inc.) by means of a nonlinear fitting formula: 4-Parameter Logistic Model or Sigmoidal Dose-Response Model: Y = Bottom + (Top−Bottom)/(1 + 10^((LogIC50−X) × Hill Slope)), [formula] in which X indicates the logarithm of compound concentration, Y indicates a fluorescence polarization mP value, and Top and Bottom indicate the maximum and minimum readouts of fluorescence polarization mP values. Table 1: Inhibitory Activity of Compounds Against Menin-MLL Binding
For `CCN(C(=O)c1cc(F)ccc1-c1cc(N2CCN(C(=O)C3NC4CCC3CC4)CC2)cn2c(C)ncc12)C(C)C` [Compound 59, N-ethyl-5-fluoro-2-(3-methyl-6-{4-[(1R,3S,4S)-2-azabicyclo[2.2.2]octan-3-carbonyl]piperazin-1-yl}imidazo[1,5-a]pyridin-8-yl)-N-(isopropyl)benzamide], the IC50 (commonly the midpoint of a concentration-inhibition curve) is 23 nM.

Take `CCN(C(=O)c1cc(F)ccc1-c1cc(C2(F)CCN(C[C@H]3CC[C@H](NS(=O)(=O)CC)CC3)C2)cc2c1cnn2C)C(C)C` (some centres unmarked) [Compound 61, N-ethyl-5-fluoro-2-[6-(3-fluoro-1-{[(1r,4r)-4-ethanesulfonamidocyclohexyl]methyl}pyrrolidin-3-yl)-1-methyl-1H-indazol-4-yl]-N-(isopropyl)benzamide]: the IC50 is 58 nM.

Consider `CCN(C(=O)c1cc(F)ccc1-c1cc(N2CCN(CC[C@H]3CC[C@H](NS(=O)(=O)CC)CC3)CC2)cn2c(C)ncc12)C(C)C` [Compound 65, N-ethyl-5-fluoro-2-[3-methyl-6-(4-{2-[(1r,4r)-4-ethanesulfonamidocyclohexyl]ethyl}piperazine-1-yl)imidazo[1,5-a]pyridin-8-yl]-N-(isopropyl)benzamide], for which the IC50 was found to be 136 nM.

In turn, `CCN(C(=O)c1cc(F)ccc1-c1cc(C2(F)CCN(C[C@]3(O)CC[C@@H](NS(=O)(=O)CC)CC3)C2)cc2c1cnn2C)C(C)C` (some centres unmarked) [Compound 68, N-ethyl-5-fluoro-2-[6-(3-fluoro-1-{[(1s,4s)-4-ethanesulfonamido-1-hydroxylcyclohexyl]methyl}pyrrolidin-3-yl)-1-methyl-1H-indazol-4-yl]-N-(isopropyl)benzamide] yielded an IC50 of 298 nM.

For the molecule `CCN(C(=O)c1cc(F)ccc1-c1cc(C2CCN(C[C@H]3CC[C@H](NS(=O)(=O)CC)CC3)C2)cn2c(C3CC3)ncc12)C(C)C` (some centres unmarked) [Compound 69, 2-[3-cyclopropyl-6-(1-{[(1r,4r)-4-ethanesulfonamidocyclohexyl]methyl}pyrrolidin-3-yl)imidazo[1,5-a]pyridin-8-yl]-N-ethyl-5-fluoro-N-(isopropyl)benzamide], the IC50 came out at 222 nM.

In the case of `CCN(C(=O)c1cc(F)ccc1-c1cc([C@@H]2CCN(C[C@H]3CC[C@H](NS(=O)(=O)CC)CC3)C2)nc2c1cnn2C)C(C)C` [Example 11-1], the IC50 stood at 744 nM.

On to `CCN(C(=O)c1cc(F)ccc1-c1cc([C@H]2CCN(C[C@H]3CC[C@H](NS(=O)(=O)CC)CC3)C2)nc2c1cnn2C)C(C)C` [Example 11-2, N-ethyl-5-fluoro-2-{1-methyl-6-[(3S)-1-{[(1r,4r)-4-ethanesulfonamidocyclohexyl]methyl}pyrrolidin-3-yl]-1H-pyrazolo[3,4-b]pyridin-4-yl}-N-(isopropyl)benzamide], for which the IC50 stood at 65.5 nM.

As to `CCN(C(=O)c1cc(F)ccc1-c1cc([C@H]2CCN(C[C@H]3CC[C@H](NS(=O)(=O)CC)CC3)C2)cc2cncn12)C(C)C` [Example 25-2, N-ethyl-5-fluoro-N-isopropyl-2-{7-[(3R)-1-{[(1r,4r)-4-ethanesulfonamidocyclohexyl]methyl}pyrrolidin-3-yl]imidazo[1,5-a]pyridin-5-yl}benzamide], the IC50 came out at 21 nM.

`CCN(C(=O)c1cc(F)ccc1-c1cc(N2CCC(NC[C@H]3CC[C@H](N4CCOC4=O)CC3)CC2)cc2c1cnn2C)C(C)C` [Example 36, N-ethyl-5-fluoro-2-{1-methyl-6-[4-({[(1r,4r)-4-(2-oxo-1,3-oxazolidin-3-yl)cyclohexyl]methyl}amino)piperidin-1-yl]-1H-indazol-4-yl}-N-(isopropyl)benzamide] showed an IC50 of 156 nM.

The assay is the same for the next values; noted with them: fluorescence polarization; 150 nM His-Menin, 15 nM FITC-MLL; 25°C for 60 min; read-out: Menin-MLL IC50.
Turning to `CCN(C(=O)c1cc(F)ccc1-c1cc(N2CCN(CCc3ccc(-c4cc(OC)c(OC)nn4)cc3)CC2)cn2c(C)ncc12)C(C)C` [Compound 70, 2-[6-(4-{2-[4-(5,6-dimethoxypyridazin-3-yl)phenyl]ethyl}piperazin-1-yl)-3-methylimidazo[1,5-a]pyridin-8-yl]-N-ethyl-5-fluoro-N-(isopropyl)benzamide], the IC50 came to 93 nM.

For `CCN(C(=O)c1cc(F)ccc1-c1cc(C2=CCC(NCc3ccc(-c4cc(OC)c(OC)nn4)cc3)CC2)n2ccncc12)C(C)C` (centres unmarked) [Example 4, 2-{6-[4-({[4-(5,6-dimethoxypyridazin-3-yl)phenyl]methyl}amino)cyclohexyl-1-ene-1-yl]pyrrolo[1,2-a]pyrazin-8-yl}-N-ethyl-5-fluoro-N-isopropylbenzamide], the IC50 was 17.5 nM.

For the molecule `C=C1C[C@@H]2CC[C@H]1[C@@H](C(=O)N1CCC(c3cc(-c4ccc(F)cc4C(=O)N(CC)C(C)C)c4cncn4c3)C1)N2` (stereo partly drawn) [Example 23, N-ethyl-5-fluoro-2-(6-{1-[(1S,3S,4R)-5-methylene-2-azabicyclo[2.2.2]octan-3-carbonyl]pyrrolidin-3-yl}imidazo[1,5-a]pyridin-8-yl)-N-(isopropyl)benzamide], the IC50 was found to be 102 nM.

Consider `CCN(C(=O)c1cc(F)ccc1-c1cc(C2CCN(CC3CCC(NC(=O)OC(C)(C)C)CC3)C2)cc2cncn12)C(C)C` (centres unmarked) [Example 24, N-(4-{[3-(5-{2-[ethyl(isopropyl)aminoformyl]-4-fluorophenyl}imidazo[1,5-a]pyridin-7-yl)pyrrolidin-1-yl]methyl}cyclohexyl)tert-butyl carbamate], for which the IC50 was found to be 23 nM.

For the molecule `CCN(C(=O)c1cc(F)ccc1-c1cc(C2CCN(C[C@H]3CC[C@H](N4CCOC4=O)CC3)C2)nc2c1cnn2C)C(C)C` (some centres unmarked) [Example 28], the IC50 is 118 nM.

Consider `CCN(C(=O)c1cc(F)ccc1-c1cc(C2CCN(C(=O)[C@H]3N[C@@H]4CC[C@H]3C4)C2)cc2c1cnn2C)C(C)C` (stereo partly drawn) [Example 31, 2-(6-{1-[(1R,3S,4S)-2-azabicyclo[2.2.1]heptan-3-carbonyl]pyrrolidin-3-yl}-1-methyl-1H-indazol-4-yl)-N-ethyl-5-fluoro-N-(isopropyl)benzamide], for which the IC50 stood at 275 nM.

On to `CCN(C(=O)c1cc(F)ccc1-c1cc(C2(F)CN(C(=O)[C@H]3N[C@@H]4CC[C@H]3C4)C2)cn2cncc12)C(C)C` [Example 34, 2-(6-{1-[(1R,3S,4S)-2-azabicyclo[2.2.1]heptan-3-carbonyl]-3-fluoroazacyclobutan-3-yl}imidazo[1,5-a]pyridin-8-yl)-N-ethyl-5-fluoro-N-(isopropyl)benzamide], for which the IC50 was 168 nM.

In the case of `CCN(C(=O)c1cc(F)ccc1-c1cc(C2CCN(C(=O)[C@H]3N[C@@H]4CC[C@H]3C4)C2)cn2cncc12)C(C)C` (stereo partly drawn) [Example 38, 2-(6-{1-[(1R,3S,4S)-2-azabicyclo[2.2.1]heptan-3-carbonyl]pyrrolidin-3-yl}imidazo[1,5-a]pyridin-8-yl)-N-ethyl-5-fluoro-N-(isopropyl)benzamide], the IC50 was determined as 128 nM.

As for `CCN(C(=O)c1cc(F)ccc1-c1cc(C2CCN(Cc3ccc(N4CCOC4=O)cc3)C2)cn2cncc12)C(C)C` (centres unmarked) [Example 41], the IC50 was determined as 92 nM.

For the molecule `CCN(C(=O)c1cc(F)ccc1-c1cc(C2CCN(CC3CCCCC3)C2)cn2cncc12)C(C)C` (centres unmarked) [Example 44], the IC50 was determined as 29.5 nM.

For `CCN(C(=O)c1cc(F)ccc1-c1cc(C2CCN(C[C@H]3CC[C@H](NC(C)=O)CC3)C2)cn2cncc12)C(C)C` (some centres unmarked) [Example 45], the IC50 worked out at 95.5 nM.

`CCN(C(=O)c1cc(F)ccc1-c1cc(C2CCN(CC3CCN(c4nnc(C)o4)CC3)C2)cn2cncc12)C(C)C` (centres unmarked) [Example 46]: the IC50 was determined as 62.5 nM.

With `CCN(C(=O)c1cc(F)ccc1-c1cc(C2CCN(C[C@H]3CC[C@H](N4CCOC4=O)CC3)C2)cn2cncc12)C(C)C` (some centres unmarked) [Example 47], the IC50 worked out at 25 nM.

For the molecule `CCN(C(=O)C(C)C)c1cc(F)ccc1-c1cc(N2CCN(C(=O)C3NC4CCC3CC4)CC2)cn2c(C)ncc12` [Example 71, N-ethyl-N-[5-fluoro-2-(3-methyl-6-{4-[(1R,3S,4S)-2-azabicyclo[2.2.2]octan-3-carbonyl]piperazin-1-yl}imidazo[1,5-a]pyridin-8-yl)phenyl]-2-methylpropionamide], the half-inhibitory concentration (IC50) came to 15 nM.
